Assay results published in ChEMBL document CHEMBL3046490, “Evaluation of fungicides to control circular leaf spot of persimmon caused by Mycosphaerella nawae” (Crop Prot, 2011).
In brackets after ≈: the same amount, converted by molar mass.

Legend:
Type in all cases: functional, organism-based
[1] = system: Plurivorosphaerella nawae; assay: Antifungal activity against circular leaf spot causing Mycosphaerella nawae MY1 assessed as inhibition of mycelial growth on potato dextrose agar
[2] = system: Plurivorosphaerella nawae; assay: Antifungal activity against circular leaf spot causing Mycosphaerella nawae MY5 assessed as inhibition of mycelial growth on potato dextrose agar
Monilinia fructicola = assay: Antifungal activity against Monilinia fructicola isolated from peach fields assessed as mycelial growth inhibition
Zasmidium citrigriseum = assay: Antifungal activity against citrus greasy spot disease caused by Zasmidium citri assessed as inhibition of mycelial growth on potato dextrose agar

SMILES | EC50 [1] [µg/mL] | EC50 [2] [µg/mL] | EC50 (Monilinia fructicola) [ppm] | EC50 (Zasmidium citrigriseum) [ppm]
O=C1C2CC=CCC2C(=O)N1SC(Cl)(Cl)Cl (stereo not given) [CAPTAN] | > 100 | > 100 | – | –
N#Cc1c(Cl)c(Cl)c(Cl)c(C#N)c1Cl [CHLOROTHALONIL] | 33.5 (≈ 126 µM) | 17 (≈ 63.9 µM) | – | –
Cc1cc(C2CC2)nc(Nc2ccccc2)n1 [CYPRODINIL] | 76.8 (≈ 341 µM) | 52.4 (≈ 233 µM) | – | –
CC(Cc1ccc(C(C)(C)C)cc1)CN1C[C@@H](C)O[C@@H](C)C1 (stereo not given in full) [FENPROPIMORPH] | 0.2 (≈ 0.659 µM) | 0.4 (≈ 1.32 µM) | – | –
O=[N+]([O-])c1cc(C(F)(F)F)c(Cl)c([N+](=O)[O-])c1Nc1ncc(C(F)(F)F)cc1Cl [FLUAZINAM] | 24 (≈ 51.6 µM) | 50.6 (≈ 109 µM) | – | –
COC(=O)N(OC)c1ccccc1COc1ccn(-c2ccc(Cl)cc2)n1 [PYRACLOSTROBIN] | 1.6 (≈ 4.13 µM) | 1.9 (≈ 4.9 µM) | 0.04 | 0.03
CC(C)(C)C(O)(CCc1ccc(Cl)cc1)Cn1cncn1 (stereo not given) [TEBUCONAZOLE] | 1.3 (≈ 4.22 µM) | 0.7 (≈ 2.27 µM) | – | –
COC(=O)NC(=S)Nc1ccccc1NC(=S)NC(=O)OC [THIOPHANATE METHYL] | 1.5 (≈ 4.38 µM) | 1.7 (≈ 4.96 µM) | – | –
CN(C)C(=S)SSC(=S)N(C)C [THIRAM] | 13.8 (≈ 57.4 µM) | 26.8 (≈ 111 µM) | – | –
